ChEMBL document CHEMBL1147928, “Engineering small molecule specificity in nearly identical cellular environments” (Bioorg Med Chem Lett, 2007)

How the values were obtained:
[1] = test system: MEF; experiment: Cytotoxicity against FKBP deficient MEF cells by MTT assay; format: cell-based; conditions: Mus musculus
[2] = Cytotoxicity against mouse wild type fibroblast cells by MTT assay; format: cell-based

## CN(Cc1cnc2nc(N)nc(N)c2n1)c1ccc(C(=O)NC(CCC(=O)O)C(=O)O)cc1 (single isomer, unassigned) [METHOTREXATE]
[1]
  IC50: 120 nM
[2]
  IC50: 180 nM
